This passage reports EC50 results from patent US10669252B2, “Benzazepine derivative, preparation method, pharmaceutical composition and use thereof” (SHANGHAI DE NOVO PHARMATECH CO., LTD., priority 2016, dated 2020).

One assay addresses T1, TLR7 (Homo sapiens, UniProt Q9NYK1).
T1 construct: host or cells: HEK293 (HEK-BLUE-hTLR7)
T1 sequence (Q9NYK1 27-1049): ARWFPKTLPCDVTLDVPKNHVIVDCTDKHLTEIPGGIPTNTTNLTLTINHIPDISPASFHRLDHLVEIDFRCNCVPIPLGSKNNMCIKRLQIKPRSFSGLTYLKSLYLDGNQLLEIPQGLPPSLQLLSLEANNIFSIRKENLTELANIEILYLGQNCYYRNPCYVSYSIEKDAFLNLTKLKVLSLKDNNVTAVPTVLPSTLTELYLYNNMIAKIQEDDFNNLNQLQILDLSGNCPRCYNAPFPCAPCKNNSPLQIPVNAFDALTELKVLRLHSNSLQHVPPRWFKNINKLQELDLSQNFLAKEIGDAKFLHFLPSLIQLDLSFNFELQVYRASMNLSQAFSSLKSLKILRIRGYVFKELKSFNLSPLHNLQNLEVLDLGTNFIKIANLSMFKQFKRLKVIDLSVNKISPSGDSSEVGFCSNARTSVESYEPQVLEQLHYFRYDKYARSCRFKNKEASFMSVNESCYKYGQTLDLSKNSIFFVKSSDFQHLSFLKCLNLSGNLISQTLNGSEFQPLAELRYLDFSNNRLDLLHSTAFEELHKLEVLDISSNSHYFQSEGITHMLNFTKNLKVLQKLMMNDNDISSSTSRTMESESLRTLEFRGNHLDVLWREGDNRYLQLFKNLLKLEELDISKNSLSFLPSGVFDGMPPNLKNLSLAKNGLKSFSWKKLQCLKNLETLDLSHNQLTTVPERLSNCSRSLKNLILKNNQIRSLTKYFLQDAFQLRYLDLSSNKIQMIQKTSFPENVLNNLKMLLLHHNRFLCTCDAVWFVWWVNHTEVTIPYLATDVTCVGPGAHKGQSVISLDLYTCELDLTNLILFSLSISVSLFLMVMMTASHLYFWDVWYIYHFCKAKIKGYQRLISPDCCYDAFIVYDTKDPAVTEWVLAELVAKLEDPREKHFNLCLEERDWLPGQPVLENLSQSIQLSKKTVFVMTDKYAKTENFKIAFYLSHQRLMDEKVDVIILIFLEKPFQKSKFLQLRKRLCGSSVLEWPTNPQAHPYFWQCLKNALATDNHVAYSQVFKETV
As to the kind of experiment: TLR7 cell based assay (HEK-BLUE-hTLR7, SEAP reporter linked to NF-κB activation). The settings on record: HEK-BLUE-hTLR7 cells, 24 hours treatment, SEAP/QUANTI-Blue readout. The method, then: In this assay, the bioactivity of compound of formula (I) was measured using a cell based assay. The assay was performed in human embryonic kidney cells (HEK293) expressing TLR7 or other TLR family members such as TLR4, and TLR9 (for selectivity screens). The activity of specific TLR agonists was assessed using the secretory embryonic alkaline phosphatase (SEAP) reporter gene that is linked to NF-κB activation in response to TLR stimulation. The SEAP activity was measured using the Quanti-Blue substrate (InvivoGen) after TLR agonist treatment.
(§1) The detailed experimental method is as follow:
HEK-BLUE-hTLR7 cell line was purchased from InvivoGen. The cells were cultured in Dulbecco's Modified Eagle's Media containing 4.5 g/L […] (Sigma-Aldrich) and 10% FBS. The cells were cultured at 37° C., 95% humidity and 5% CO2.
[…] A known TLR8 agonist was added as positive control and 1 μl of DMSO was added as negative control.
The cells were prepared as follows. The cells were removed from the incubator and growth medium was discarded. The cells were gently rinsed with pre-warmed 10 ml PBS for a T-150 flask. 12 ml pre-warmed growth medium was added, and the cells were detached by tapping the flask. Cell clumps were dissociated by gently pipetting up and down. The cells were counted. Single cell suspension was prepared at 200,000 cells per ml in growth medium and 200 μl of the cell suspension (40,000 cells per well) were immediately added to each well of the plate. The final DMSO concentration of each well was 0.5%.
The cells were cultured and treated with the compounds at 37° C., 5% CO2 for 24 hours.
(§2) 20 μL of the supernatant of each well were added to 180 μL of QUANTI-Blue, and the plates were incubated at 37° C. for 1.5 hour. Optical density was measured using a spectrophotometer at 650 nm (OD data). Activivation was calculated by using the equation below: Activivation %=(Compound OD mean value−DMSO OD mean value)/(positive control OD mean value−DMSO OD mean value)×100
(§3) The data were analyzed using the GraphPad to get EC50 values and fitting dose response curves of the compounds.

For another assay, the target named is T2, TLR8 (Homo sapiens, UniProt Q9NR97).
T2 construct: host or cells: HEK293 (HEK-BLUE-hTLR8)
T2 sequence (Q9NR97 27-1041): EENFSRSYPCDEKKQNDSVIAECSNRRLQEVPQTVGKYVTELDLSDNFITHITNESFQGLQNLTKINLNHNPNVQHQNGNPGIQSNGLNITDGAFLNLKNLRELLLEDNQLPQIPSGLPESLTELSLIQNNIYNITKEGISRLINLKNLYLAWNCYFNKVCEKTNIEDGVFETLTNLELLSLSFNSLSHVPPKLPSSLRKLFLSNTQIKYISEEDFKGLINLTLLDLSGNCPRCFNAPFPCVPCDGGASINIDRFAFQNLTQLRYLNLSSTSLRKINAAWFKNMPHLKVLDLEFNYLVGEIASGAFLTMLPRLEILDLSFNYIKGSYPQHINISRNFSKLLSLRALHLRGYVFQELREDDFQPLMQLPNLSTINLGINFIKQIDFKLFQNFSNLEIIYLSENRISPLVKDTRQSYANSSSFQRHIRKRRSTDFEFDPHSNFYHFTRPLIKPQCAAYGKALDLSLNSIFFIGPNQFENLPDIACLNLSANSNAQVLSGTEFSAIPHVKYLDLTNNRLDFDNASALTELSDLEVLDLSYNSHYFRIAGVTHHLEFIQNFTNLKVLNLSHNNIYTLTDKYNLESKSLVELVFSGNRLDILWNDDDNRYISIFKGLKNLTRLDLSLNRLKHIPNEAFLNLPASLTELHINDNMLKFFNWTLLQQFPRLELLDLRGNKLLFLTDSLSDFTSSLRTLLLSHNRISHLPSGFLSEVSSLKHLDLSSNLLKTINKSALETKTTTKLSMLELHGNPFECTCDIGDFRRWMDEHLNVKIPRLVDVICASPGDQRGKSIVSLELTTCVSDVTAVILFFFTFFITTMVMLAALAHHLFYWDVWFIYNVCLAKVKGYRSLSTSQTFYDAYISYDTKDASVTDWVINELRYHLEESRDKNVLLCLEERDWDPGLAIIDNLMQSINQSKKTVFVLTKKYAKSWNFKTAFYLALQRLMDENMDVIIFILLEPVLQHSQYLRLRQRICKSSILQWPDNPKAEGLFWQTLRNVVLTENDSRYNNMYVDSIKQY
Kind of assay: TLR8 cell based assay (HEK-BLUE-hTLR8, SEAP reporter linked to NF-κB activation). The settings on record: HEK-BLUE-hTLR8 cells. The method, then: In this assay, the bioactivity of compound of formula Iw as measured using a cell based assay. The assay was performed in human embryonic kidney cells (HEK293) expressing TLR8 or other TLR family members such as TLR4, TLR7 and TLR9 (for selectivity screens). The activity of specific TLR agonists was assessed using the secretory embryonic alkaline phosphatase (SEAP) reporter gene that is linked to NF-κB activation in response to TLR stimulation. The SEAP activity was measured using the Quanti-Blue substrate (InvivoGen) after TLR agonist treatment.
as §1
HEK-BLUE-hTLR8 cell line was purchased from InvivoGen. The cells were cultured in Dulbecco's Modified Eagle's Media containing 4.5 g/L […] (Sigma-Aldrich) and 10% FBS. The cells were cultured at 37° C., 95% humidity and 5% CO2.
Test concentrations of the compounds ranged from 0.5 nM to 15 μM with 10 points. A known TLR8 agonist was added as positive control and 1 μl of DMSO was added as negative control.
The cells were prepared as follows: The cells were removed from the incubator and growth medium was discarded. The cells were gently rinsed with pre-warmed 10 ml PBS for a T-150 flask. 12 ml pre-warmed growth medium was added, and the cells were detached by tapping the flask. Cell clumps were dissociated by gently pipetting up and down. The cells were counted. Single cell suspension was prepared at 200,000 cells per ml in growth medium and 200 μl of the cell suspension (40,000 cells per well) were immediately added to each well of the plate. The final DMSO concentration of each well was 0.5%.
The cells were cultured and treated with the compounds at 37° C., 5% CO2 for 24 h.
as §2, §3

Where [1] appears, read: 24 h treatment, SEAP/QUANTI-Blue readout.

In the case of `CCCN(CCC)C(=O)C1=Cc2ccc(-c3ccc4c(=O)n(Cc5ncco5)ccc4c3)cc2N=C(N)C1` [Compound 1-2-28], the EC50 on TLR7 is 10 to 50 µM; on TLR8 (setting [1]), under 100 nM.

As for `CCCN(CCC)C(=O)C1=Cc2cc(F)c(-c3ccc4c(=O)n(CC(N)=O)ccc4c3)cc2N=C(N)C1` [Compound 1-11-1], the figures for the EC50 at TLR7 and at TLR8 (setting [1]) were over 50 µM and 1000 to 10000 nM, respectively.

Take `CCCN(CCC)C(=O)C1=Cc2c(C)cc(-c3ccc4c(=O)n(CCS(C)(=O)=O)ncc4c3)cc2N=C(N)C1` [Compound 2-2-2]: the figures for the EC50 at TLR7 and at TLR8 (setting [1]) were 10 to 50 µM and under 100 nM, respectively.

As to `CCCN(CCC)C(=O)C1=Cc2ccc(-c3ccc4c(=O)n(CCS(C)(=O)=O)ncc4c3)cc2N=C(N)C1` [Compound 1-8-5], the values for the EC50 on TLR7, at TLR8 (setting [1]) and at TLR8 (bound stated) were over 50 µM, under 100 nM and under 10 nM, respectively.

Consider `CCCN(CCC)C(=O)C1=Cc2ccc(-c3ccc4c(=O)n(CC(=O)NC)ncc4c3)cc2N=C(N)C1` [Compound 1-8-2], for which the EC50 was over 50 µM on TLR7 and under 100 nM on TLR8 (setting [1]).

For `CCCN(CCC)C(=O)C1=Cc2ccc(-c3ccc4c(=O)n(CCS(C)(=O)=O)ccc4c3)cc2N=C(N)C1` [Compound 1-2-23], the EC50 at TLR7 was over 50 µM; at TLR8 (setting [1]) it was under 100 nM.

On to `CCCN(CCC)C(=O)C1=Cc2ccc(-c3ccc4c(=O)n(CCn5cccn5)ccc4c3)cc2N=C(N)C1` [Compound 1-2-32], for which the EC50 is 1 to 10 µM at TLR7 and under 100 nM at TLR8 (setting [1]).

Turning to `CCCN(CCC)C(=O)C1=Cc2ccc(-c3ccc4c(=O)n(CC(C)(C)O)ccc4c3)cc2N=C(N)C1` [Compound 1-2-13], the values for the EC50 on TLR7 and at TLR8 (setting [1]) were over 50 µM and under 100 nM, respectively.

For `CCCN(CCC)C(=O)C1=Cc2ccc(-c3ccc4c(=O)n(CC(N)=O)ccc4c3)cc2N=C(N)C1` [Compound 1-2-10], the figures for the EC50 at TLR7 and at TLR8 (setting [1]) were over 50 µM and under 100 nM, respectively.

Turning to `CCCN(CCC)C(=O)C1=Cc2c(F)cc(-c3ccc4c(=O)n(CC(=O)N(C)C)ccc4c3)cc2N=C(N)C1` [Compound 1-10-9], the EC50 at TLR7 was 1 to 10 µM; at TLR8 (setting [1]), under 100 nM.

On to `CCCN(CCC)C(=O)C1=Cc2ccc(-c3ccc4c(=O)n(CC(N)=O)c(C)cc4c3)cc2N=C(N)C1` [Compound 1-2-16], for which the EC50 was over 50 µM on TLR7 and under 100 nM at TLR8 (setting [1]).

Consider `CCCN(CCC)C(=O)C1=Cc2ccc(-c3ccc4c(=O)n(Cc5nccn5C)ccc4c3)cc2N=C(N)C1` [Compound 1-2-33], for which the figures for the EC50 on TLR7 and on TLR8 (setting [1]) were over 50 µM and under 100 nM, respectively.

As to `CCCN(CCC)C(=O)C1=Cc2ccc(-c3ccc4c(c3)CCN(CC(C)(C)O)C4=O)cc2N=C(N)C1` [Compound 1-4-2], the EC50 at TLR7 was over 50 µM; at TLR8 (setting [1]), under 100 nM.

Turning to `CCCN(CCC)C(=O)C1=Cc2ccc(-c3ccc4c(=O)n(CCO)ncc4c3)cc2N=C(N)C1` [Compound 1-8-3], the results for the EC50 on TLR7 and at TLR8 (setting [1]) were over 50 µM and under 100 nM, respectively.

Turning to `CCCN(CCC)C(=O)C1=Cc2ccc(-c3ccc4c(=O)n(CCO)c(=O)n(C)c4c3)cc2N=C(N)C1` [Compound 1-9-1], the EC50 was over 50 µM at TLR7 and under 100 nM on TLR8 (setting [1]).

On to `CCCN(CCC)C(=O)C1=Cc2ccc(-c3ccc4c(=O)n(CCNC(C)=O)ccc4c3)cc2N=C(N)C1` [Compound 1-2-18], for which the EC50 is over 50 µM at TLR7 and under 100 nM at TLR8 (setting [1]).

As for `CCCN(CCC)C(=O)C1=Cc2ccc(-c3ccc4c(=O)n(CCOP(=O)(OC)OC)ccc4c3)cc2N=C(N)C1` [Compound 1-2-45], the values for the concentration for a half-maximal effect (EC50) at TLR7 and at TLR8 (setting [1]) were 10 to 50 µM and under 100 nM, respectively.

With `CCCN(CCC)C(=O)C1=Cc2ccc(-c3ccc4c(=O)n(CC(=O)NC)ccc4c3)cc2N=C(N)C1` [Compound 1-2-21], the EC50 at TLR7 was over 50 µM; on TLR8 (setting [1]), under 100 nM.

With `CCCN(CCC)C(=O)C1=Cc2ccc(-c3ccc4c(=O)n(CCSC)ccc4c3)cc2N=C(N)C1` [Compound 1-2-22], the EC50 on TLR7 is over 50 µM; at TLR8 (setting [1]) it was under 100 nM.

On to `CCCN(CCC)C(=O)C1=Cc2ccc(-c3ccc4c(=O)n(CCNS(C)(=O)=O)ccc4c3)cc2N=C(N)C1` [Compound 1-2-19], for which the values for the half-maximal effective concentration (EC50) on TLR7 and on TLR8 (setting [1]) were over 50 µM and under 100 nM, respectively.

On to `CCCN(CCC)C(=O)C1=Cc2ccc(-c3ccc4c(=O)n(CCO)c(C)cc4c3)cc2N=C(N)C1` [Compound 1-2-8], for which the figures for the EC50 at TLR7 and on TLR8 (setting [1]) were over 50 µM and under 100 nM, respectively.
